Several values for one entry are separate records, joined by “and”; a condition that tells them apart may be missing. Equal entries are not always repeated. Where two headings read alike, the source gives them in different places.
Tested on: patients with newly diagnosed glioblastoma
Excerpt: The phase Ib, dose-escalation part of this study explored escalating oral doses of trotabresib in combination with TMZ in the adjuvant setting and with TMZ plus RT in the concomitant setting. […] Dose-escalation decisions were made by the safety review committee, based on all available safety, pharmacokinetics, pharmacodynamics, and preliminary efficacy information, and a calculation of risk assessment using a Bayesian logistic regression model.
The primary endpoints of the study were to determine the safety and tolerability, maximum tolerated dose, and/or recommended phase II dose (RP2D) of trotabresib in combination with TMZ as adjuvant therapy, and with TMZ and RT as concomitant therapy. […] Trotabresib pharmacodynamics was an exploratory endpoint.
Adverse events (AEs) were classified using the Medical Dictionary for Regulatory Activities v18.1 or higher system organ class and preferred term. Severity of AEs was graded based on the patient’s symptoms according to the National Cancer Institute Common Terminology Criteria for Adverse Events v5.0.[35] Dose-limiting toxicities (DLTs) were defined as any of the toxicities described in Supplementary Table S2 occurring within the DLT assessment period (cycle 1 [28 days]), unless the event could clearly be determined to be unrelated to trotabresib. Screening MRI scans were performed after surgical resection and within 28 days (+3 days) prior to initiation of study treatment. Subsequent tumor assessments by MRI or CT were performed at week 10 during the concomitant treatment period and at the end of every other treatment cycle from cycle 2 onwards during the adjuvant and trotabresib monotherapy treatment periods. Best overall response (BOR) was evaluated as complete response (CR), partial response (PR), SD, progressive disease (PD), or not evaluable, according to Response Assessment in Neuro-Oncology criteria for high-grade glioma.[36] Plasma samples were collected during the first treatment cycle for investigation of trotabresib pharmacokinetics and pharmacodynamics. Plasma pharmacokinetic parameters assessed included peak plasma concentration (Cmax), time to peak plasma concentration (tmax), area under the plasma concentration–time curve (AUC), and terminal half-life (t½). Pharmacodynamic markers assessed included blood levels of CCR1 and HEXIM1 mRNA, which are established markers of BET inhibitor target engagement.[17],[22],[37],[38]

[1] = adjuvant overall (N = 18), related to labelled drug(s)
[2] = concomitant overall (N = 14), related to labelled drug(s)

SMILES: Cn1cc(-c2cc(S(C)(=O)=O)ccc2OCC2CC2)c2ccccc2c1=O [Trotabresib]
- Thrombocytopenia TRAE, grade 3/4 [1]: 7 (39%) n (%) and 7 (39) n (%)
- Vomiting TRAE, any grade [1]: 4 (22) n (%)
- Vomiting TRAE, grade 3/4 [1]: 0 n (%)
- Serious intracranial hemorrhage, attributed to trotabresib (adjuvant, trotabresib 30 mg): 1 patient
- Serious diarrhea, attributed to trotabresib (adjuvant, trotabresib 45 mg): 1 patient
- Treatment-related deaths (both cohorts): no treatment-related deaths
- Rash and other skin-related TRAEs attributed to trotabresib only (concomitant overall): 4 (29%) n (%)
- ALT increased TRAE, any grade [2]: 1 (7) n (%)
- ALT increased TRAE, grade 3/4 [2]: 1 (7) n (%)
- AST increased TRAE, any grade [2]: 1 (7) n (%)
- AST increased TRAE, grade 3/4 [2]: 0 n (%)
- Acneiform dermatitis TRAE, any grade [2]: 3 (21) n (%)
- Acneiform dermatitis TRAE, grade 3/4 [2]: 0 n (%)
- Anemia TRAE, any grade [2]: 3 (21) n (%)
- Anemia TRAE, grade 3/4 [2]: 2 (14) n (%)
- Any TRAE, any grade [2]: 14 (100) n (%)
- Any TRAE, grade 3/4 [2]: 7 (50) n (%)
- Asthenia TRAE, any grade [2]: 3 (21) n (%)
- Asthenia TRAE, grade 3/4 [2]: 0 n (%)
- Blood bilirubin increased TRAE, any grade [2]: 2 (14) n (%)
- Blood bilirubin increased TRAE, grade 3/4 [2]: 0 n (%)
- Decreased appetite TRAE, any grade [2]: 3 (21) n (%)
- Decreased appetite TRAE, grade 3/4 [2]: 0 n (%)
- Diarrhea TRAE, any grade [2]: 2 (14) n (%)
- Diarrhea TRAE, grade 3/4 [2]: 1 (7) n (%)
- Dysgeusia TRAE, any grade [2]: 5 (36) n (%)
- Dysgeusia TRAE, grade 3/4 [2]: 0 n (%)
- Dyspepsia TRAE, any grade [2]: 2 (14) n (%)
- Dyspepsia TRAE, grade 3/4 [2]: 0 n (%)
- Fatigue TRAE, any grade [2]: 5 (36) n (%)
- Fatigue TRAE, grade 3/4 [2]: 1 (7) n (%)
- Hyperbilirubinemia TRAE, any grade [2]: 2 (14) n (%)
- Hyperbilirubinemia TRAE, grade 3/4 [2]: 0 n (%)
- Hyperglycemia TRAE, any grade [2]: 1 (7) n (%)
- Hyperglycemia TRAE, grade 3/4 [2]: 0 n (%)
- Hypophosphatemia TRAE, any grade [2]: 1 (7) n (%)
- Hypophosphatemia TRAE, grade 3/4 [2]: 0 n (%)
- Hypotension TRAE, any grade [2]: 0 n (%)
- Hypotension TRAE, grade 3/4 [2]: 0 n (%)
- Insomnia TRAE, any grade [2]: 0 n (%)
- Insomnia TRAE, grade 3/4 [2]: 0 n (%)
- Intracranial hemorrhage TRAE, any grade [2]: 0 n (%)
- Intracranial hemorrhage TRAE, grade 3/4 [2]: 0 n (%)
- Leukopenia TRAE, any grade [2]: 0 n (%)
- Leukopenia TRAE, grade 3/4 [2]: 0 n (%)
- Lymphopenia TRAE, any grade [2]: 2 (14) n (%)
- Lymphopenia TRAE, grade 3/4 [2]: 0 n (%)
- Nausea TRAE, any grade [2]: 8 (57%) n (%) and 8 (57) n (%)
- Nausea TRAE, grade 3/4 [2]: 0 n (%)
- Neutropenia TRAE, any grade [2]: 6 (43) n (%)
- Neutropenia TRAE, grade 3/4 [2]: 4 (29) n (%)
- Pruritus TRAE, any grade [2]: 0 n (%)
- Pruritus TRAE, grade 3/4 [2]: 0 n (%)
- Rash TRAE, any grade [2]: 1 (7) n (%)
- Rash TRAE, grade 3/4 [2]: 0 n (%)
- Seizure TRAE, any grade [2]: 2 (14) n (%)
- Seizure TRAE, grade 3/4 [2]: 0 n (%)
- Thrombocytopenia TRAE, any grade [2]: 9 (64%) n (%) and 9 (64) n (%)
- Thrombocytopenia TRAE, grade 3/4 [2]: 6 (43%) n (%) and 6 (43) n (%)
- Vomiting TRAE, any grade [2]: 5 (36) n (%)
- Vomiting TRAE, grade 3/4 [2]: 0 n (%)
- Platelet nadir (trotabresib 30 mg 4 days on/24 days off): > 100,000 /mm^3
